This is an account of results in patent US20070155827A1, “USE OF BENZO-FUSED HETEROCYCLE SULFAMIDE DERIVATIVES FOR THE TREATMENT OF DEPRESSION” (priority 2005, published 2007).

The structures appear in SMILES notation. Entries after “also recorded” stand apart in the source; their conditions may differ. Read-outs that look alike come from different tables or passages of the source.

This test relates to CH3/HeJ mice. Briefly: Mouse Tail Suspension Assay (Acute), TST. Type of test: in vivo. To be noted: p.o.; for ED50: Mus musculus, po, 7 min, 7-min session. The protocol:
In the tail suspension test (TST) for evaluating compounds for anti-depressant activity, mice are suspended by their tails to a metal or plastic rod using clip or scotch tape. The test is usually quite short, 5-7 min, and the amount of time the mice spend immobile is recorded either manually or with an automated device. Agents which have antidepressant activity, decrease the duration of immobility of mice in this test.
The basic apparatus for the tail suspension assay consisted of a yellow plastic chamber (91×45×10 cm) divided for four arenas 25, 20, 20 and 25 cm wide separated by yellow plastic walls 0.75 cm thick. Mice were suspended by their tails using a rubber clip (7 cm long) attached to the plastic rod that was placed on the top of a testing chamber half way through its deep dimension. Each experimental session was videotaped and analyzed for four animals in the real time by computer software (“Depression Scan” Clever Sys Inc.). The computer justification of immobility was calibrated with the use of animals dosed with lorazepam while justification of movement was calibrated with the high dose of desipramine treated animals. Control, vehicle treated animals and animals treated with Compound #8 were analyzed under the calibrated settings. The settings were adjusted separately for dark (CH3/HeJ and C57Bl/6J strains) and white mice (Balb/cJ and A/J strains). A yellow background was used for dark mice and a blue background was used to record movements of white mice.
The ability of a test compound to decrease the duration of immobility, or increase mobility was measured using the TST procedure described above. Acute treatment with clinically effective antidepressants and/or novel compounds that have potential antidepressant properties decrease the duration of immobility and at the same time increases mobility in the TST.
Data were analyzed using GraphPad Prism software (GraphPad Software, Inc. San Diego, Calif.). For the comparison of the effect of different doses for various drugs on immobility in the TST one-way analyses of variance (ANOVA) were used followed by Dunnett's multiple comparison test. […] The ED50 and Emax values were compared using two-way ANOVA and Bonferroni post-hoc test.
Positive controls included duloxetine (DLX), venlafaxine (VLX)and desipramine (DMI) which were dissolved in 0.5% methylcellulose and lorazepam (LOR) which was suspended in 0.5% of methylcellulose in water by sonication. All drugs and vehicles were administered orally (p.o.) by gavage in a volume of 10 mL/kg.
The mice were ordered 5 weeks old and at the beginning of experiment their weight was 20±5 g. Animals were housed in groups of four in plastic cages at an ambient temperature of 21° C. to 23° C. with an automated 12/12 hours light/dark cycle and access to water and a commercial rodent food ad libitum.
Each experiment consisted of seven treatment groups with four animals per group. A total of 28 animals per experiment were used. Every two consecutive experiments (1 & 2, 3 & 4, 5 & 6 and 7 & 8) were exact replicas of each other. […] One treatment group of four animals in each experiment was a vehicle treated group. In addition to the vehicle treated group, the effects of DMI at 6 mg/kg, 12 mg/kg, 30 mg/kg, 60 mg/kg and 120 mg/kg and LOR at 5 mg/kg were tested in experiments 1 and 2. […] In experiments 5 and 6 the effects of DLX at 6 mg/kg, 12 mg/kg, 30 mg/kg, 60 mg/kg, 120 mg/kg and LOR at 5 mg/kg were tested. […]

As to `NS(=O)(=O)NC[C@H]1COc2cc(Cl)ccc2O1` [Compound #8, (2S)-(−)-N-(6-Chloro-2,3-dihydro-benzo[1,4]dioxin-2-ylmethyl)-sulfamide], the ED50 – broadly, the midpoint of the dose-response relation – by setting is: (read-out: Immobility ED50) 5.6 mg/kg; (read-out: Mobility ED50) 3.6 ± 2.9 mg/kg. For the same compound, the “effect on immobility and mobility time in TST” value (7-min testing session) is “decreased immobility time and increased mobility time; also recorded: antidepressant-like activity”.
